Laboratory results as given in patent US12414947B2, “Use of FGFR inhibitors for treatment of idiopathic short stature” (CEDARS-SINAI MEDICAL CENTER, priority 2019, dated 2025).

Assays:
[1] = Case report: height growth of patient CC0419 during erdafitinib therapy; format: in vivo, human
Text: FIG. 1 depicts a child's growth chart.
(§1) […], they underwent a biopsy for a second recurrence.

[2] = in vivo
Text: as §1

[3] = system: pERK1/2 and pAKT signaling in Patient normal fibroblast cells; settings: IGF-I 100 ng/ml, IGF-2 100 ng/ml; erdafitinib 0-300 nM
Text: FIG. 4 depicts signaling effects. […] Test working hypothesis using Patient's normal fibroblast cells as the model system. Fibroblasts, grown in αMEM+15% FBS till ˜80% confluency, were serum-starve for 18 hr in αMEM+0.1% BSA.
In vitro assays, with read-outs: signaling (pERK, pAKT), proliferation/survival assays (WST-1).

[4] = system: Patient normal fibroblasts; test: Immunoblot analysis for apoptosis markers (FIG. 5); format: cell-based, human
Text: FIG. 5 depicts the effects on apoptosis.

[5] = system: Patient normal fibroblast cells; test: Cell Survival Assay (WST-1) (FIGS. 6, 7); format: cell-based, human
Experimental: Fibroblasts were seeded 5×10^4 cells/well (96 well format), grow in αMEM+15% for 24 hr. […] WST-1 reagent was added, 10 μl/well, 1 hr, spectrophotometry analysis. 3 wells per test sample. NC, normal control.
Assay set up as described in FIG. 6, except IGF-I (100 ng/ml), IGF2 (100 ng/ml) or FGF2 (40 ng/ml) added as indicated. Cell survival was assayed over 5 days.

[6] = Example 3: child with short stature given erdafitinib; format: in vivo, human; settings: six-month period, from the 10%
Text: A child presents with short stature. […] Their height growth velocity increased resulting in a jump in height from the 10% up to the 50% for their age.

Compound: COc1cc(OC)cc(N(CCNC(C)C)c2ccc3ncc(-c4cnn(C)c4)nc3c2)c1 [Erdafitinib, erdafitinib]
- total growth in height ([1]; 9-month therapy (7 mg then 5 mg orally daily) plus one month after cessation): 14.3 cm
- total growth in height ([1]; 9-month therapy plus one month after cessation): 5.63 inches
- height percentile ([1]; 10 months from initiation of treatment, from 15th percentile): 70 percentile
- growth velocity ([1]; on therapy, from 3.653 cm/year before): 18.06 cm/year
- growth velocity (percentile) ([1]; on therapy, from 40% before, wildtype germline FGFR): > 99%
- height percentile ([1]; starting ~2 months into therapy, from ~15 percentile): 23 percentile
- height percentile ([1]; within one month of initiating treatment, from 15th percentile, child): 48 percentile
- Dexa bone scan interpretation [2]: consistent with osteoporosis
- GH, random (rating) [2]: normal
- IGF-1 Z-score [2]: −1.7
- IGF-I SDS [2]: −1.4 SDS
- IGF-II (rating) [2]: normal
- IGFBP-3 (rating) [2]: normal
- Metabolic panel: creatine (rating) [2]: below normal
- RDW (red cell distribution width) [2]: 16.4%
- Testosterone, free and total (rating) [2]: abnormally low
- bone age [2]: ~14 year
- bone age delay compared to CA (x-ray hand and wrist) [2]: ~2 yrs
- bone age, standard deviation below the mean [2]: greater than 2 standard deviation
- events that led to discontinuation [2]: scoliosis of the thoracic region, kyphosis of the upper cervical region, and hip flexion contractures
- hyperphosphatemia [2]: Transient hyperphosphatemia
- lumbar spine bone density, standard deviations below mean for age-matched population [2]: 3.8 standard deviations
- mean bone density value for the lumbar spine (Dexa) [2]: 0.6322 gm/sq·cm
- musculoskeletal problems [2]: rapid growth and kyphosis/scoliosis which required surgery
- x-ray hand and wrist finding: osteochondrosis [2]: A suggestion of osteochondrosis
- x-ray hand and wrist finding: periosteal reaction [2]: Periosteal reaction (distal radius, ulna, first metacarpal)
- adverse events that led to dose reduction ([2]; po): musculoskeletal pain and high phosphorus levels
- pERK1/2 in presence of ligands (IGF-1, IGF2) [3]: remains erdafitinib-suppressed
- apoptotic markers, cleaved Caspase 3 and cleaved PARP ([4]; by 24 hrs, erdafitinib treated cells without IGF-I): detected
- apoptotic markers when IGF-I was present ([4]; lysates 24 and 48 hr post-treatment, IGF-I 100 ng/ml): not detected (or significantly blunted)
- cell survival (WST-1) ([5]; 0-300 nM, 1-5 days, serum-free media, 5×10^4 cells/well): dose-dependently decreased survival
- survival of erdafitinib-treated cells with growth factors (WST-1) ([5]; IGF-I 100 ng/ml, IGF2 100 ng/ml or FGF2 40 ng/ml, over 5 days): IGF-I, but not FGF2, has significant protective effects
- height percentile for age [6]: 50%
